Experimental data from patent US5688826A, “Excitatory amino acid derivatives” (Eli Lilly and Company, priority 1996, dated 1997).

Assays:
[1] = test system: cAMP-linked metabotropic glutamate receptors; test: agonism of glutamate at cAMP-linked metabotropic glutamate receptors; assay type: cell-based; details: result in words only
[2] = test system: metabotropic glutamate receptors; test: displacement of 1S,3R-ACPD-sensitive [3H]glutamate binding to rat brain cell membranes; details: crude membranes of rat forebrain
Protocol: The binding of [^3 H]glutamate was conducted with crude membranes of rat forebrain as described by Schoepp and True. Schoepp and True, Neuroscience Lett., 145, 100-104 (1992) and Wright et al., J. Neurochemistry 63:938-945 (1994).

Row | Structure (SMILES) | agonist activity at cAMP-linked metabotropic glutamate receptors [1] | IC50 [2] [nM]
1 | NC1(C(=O)O)COC2C(C(=O)O)C21 (single isomer, unassigned) [Example 2(g)] | potent agonists | –
2 | NC1(C(=O)O)COC2C(C(=O)O)C21 (stereo not drawn) [Example 1, 1SR,4SR,5RS,6SR-4-Amino-2-Oxabicyclo[3.1.0]hexane-4,6-dicarboxylic Acid] | potent agonists | 55
3 | NC1(C(=O)O)CSC2C(C(=O)O)C21 (stereo not drawn) [Example 4, 1SR,4RS,5RS,6RS-4-Amino-2-Thiabicyclo[3.1.0]hexane-4,6-dicarboxylic Acid] | potent agonists | –
